Experimental data: patent US11807625B2, “Capsid inhibitors for the prevention of HIV” (Gilead Sciences, Inc., priority 2019, dated 2023)
Read-outs that look alike come from different tables or passages of the source.

Experiment: PK of compound of Formula (Ia) after single intramuscular dose of solution formulations in Wistar Han rats
Type: in vivo
Conditions: for Plasma concentration: 0 h; for Plasma concentration / concentration at 48 h / concentration at 1 h / concentration at 24 h / concentration at 72 h / concentration at 96 h / concentration at 168 h / concentration at 3 h / concentration at 8 h: IM 100 mg/kg; for concentration at 48 h / concentration at 1 h / concentration at 24 h / concentration at 72 h / concentration at 96 h / concentration at 168 h / AUC(0-t) / concentration at 3 h / concentration at 8 h: Wistar Han, rat, plasma, 100 mg/kg; for concentration at 48 h / concentration at 1 h / concentration at 24 h / concentration at 72 h / concentration at 96 h / concentration at 168 h / concentration at 3 h / concentration at 8 h: intramuscular; for AUC(0-t): im, single IM 100 mg/kg, male Wistar Han rats, mean ± SD
Experimental: Formulations containing the compound of Formula (Ia), or a pharmaceutically acceptable salt thereof, were prepared as solutions and optionally administered subcutaneously or intramuscularly to rats, rabbits, and/or dogs.
A solution of about 400 mg/ml of the compound of Formula (Ia) having 21.13 w/w % water, 45.25 w/w % PEG 300, and 33.61 w/w % of a sodium salt of a compound of Formula (Ia) was prepared. The solution was administered intramuscularly to Wistar Han rats at a dose of about 100 mg/kg and beagle dogs at a dose of about 30 mg/kg.
A solution of about 400 mg/ml of the compound of Formula (Ia) having 19.18 w/w % water, 41.09 w/w % PEG 300, 33.61 w/w % of a sodium salt of a compound of Formula (Ia), and 6.12 w/w % poloxamer 188 was prepared. The solution was administered intramuscularly to Wistar Han rats at a dose of about 100 mg/kg and beagle dogs at a dose of about 30 mg/kg.
(§1) A solution of about 500 mg/ml of the compound of Formula (Ia) having 16.93 w/w % water, 36.22 w/w % PEG 300, 41.85 w/w % of a sodium salt of a compound of Formula (Ia), and 5.00% ethanol was prepared. The solution was administered intramuscularly to Wistar Han rats at a dose of about 100 mg/kg and beagle dogs at a dose of about 30 mg/kg.
as §1, with “14.50” for “16.93”, “31.04” for “36.22”, “(Ia), 5.00% ethanol,” for “(Ia),”, “7.61 w/w % poloxamer 188” for “5.00% ethanol”

[1] = Solution H (~400 mg/mL), Wistar Han rats, mean, n = 4, read-out: Plasma concentration, Mean
[2] = Solution K (~500 mg/mL, ethanol), Wistar Han rats, individual animals #1-#4, read-out: Plasma concentration
[3] = Solution K (~500 mg/mL, ethanol), Wistar Han rats, mean, n = 4, read-out: Plasma concentration, Mean
[4] = male, individual rats, solution M, 500 mg/mL, read-out: Plasma concentration
[5] = male, mean, n = 4 rats, solution M, 500 mg/mL, read-out: Plasma concentration
[6] = male, Solution H (~400 mg/mL), Wistar Han rats, mean, n = 4, read-out: Plasma concentration, Mean
[7] = male, Solution J (~400 mg/mL, poloxamer 188), Wistar Han rats, individual animals #1-#4, read-out: Plasma concentration
[8] = male, Solution J (~400 mg/mL, poloxamer 188), Wistar Han rats, mean, n = 4, read-out: Plasma concentration, Mean
[9] = male, Solution K (~500 mg/mL, ethanol), Wistar Han rats, individual animals #1-#4, read-out: Plasma concentration
[10] = male, Solution K (~500 mg/mL, ethanol), Wistar Han rats, mean, n = 4, read-out: Plasma concentration, Mean

Plasma concentration (individual rats, solution M, 500 mg/mL): BLQ | Plasma concentration (Solution H (~400 mg/mL), Wistar Han rats, individual animals #1-#4): BLQ | Plasma concentration (Solution J (~400 mg/mL, poloxamer 188), Wistar Han rats, individual animals #1-#4): BLQ | Plasma concentration (Solution K (~500 mg/mL, ethanol), Wistar Han rats, individual animals #1-#4): BLQ | concentration at 48 h (Solution H (~400 mg/mL), Wistar Han rats, individual animals #1-#4, read-out: Plasma concentration): 354 nM | concentration at 1 h [1]: 150 nM | concentration at 24 h [1]: 439 nM | concentration at 48 h [1]: 471 nM | concentration at 72 h [1]: 397 nM | concentration at 96 h [1]: 477 nM | concentration at 168 h [1]: 588 nM | concentration at 72 h [2]: 516 nM | concentration at 96 h [2]: 537 nM | concentration at 168 h [2]: 640 nM | concentration at 1 h [3]: 146 nM | concentration at 72 h [3]: 433 nM | concentration at 96 h [3]: 401 nM | concentration at 168 h [3]: 507 nM | AUC(0-t) (male, Solution H (~400 mg/mL; Na salt, water, PEG 300), n = 4, read-out: AUC0-24h): 7.59 ± 2.93 µM·h | AUC(0-t) (male, Solution H (~400 mg/mL; Na salt, water, PEG 300), n = 4, read-out: AUC0-168h): 77.7 ± 26.1 µM·h | AUC(0-t) (male, Solution J (~400 mg/mL; Na salt, water, PEG 300, poloxamer 188), n = 4, read-out: AUC0-24h): 12.1 ± 1.9 µM·h | AUC(0-t) (male, Solution J (~400 mg/mL; Na salt, water, PEG 300, poloxamer 188), n = 4, read-out: AUC0-168h): 82.5 ± 8.7 µM·h | AUC(0-t) (male, Solution K (~500 mg/mL; Na salt, water, PEG 300, ethanol), n = 4, read-out: AUC0-24h): 6.13 ± 1.7 µM·h | AUC(0-t) (male, Solution K (~500 mg/mL; Na salt, water, PEG 300, ethanol), n = 4, read-out: AUC0-168h): 67.4 ± 15.7 µM·h | AUC(0-t) (male, Solution M (~500 mg/mL; Na salt, water, PEG 300, ethanol, poloxamer 188), n = 4, read-out: AUC0-24h): 13.4 ± 2.4 µM·h | AUC(0-t) (male, Solution M (~500 mg/mL; Na salt, water, PEG 300, ethanol, poloxamer 188), n = 4, read-out: AUC0-168h): 92.9 ± 9.6 µM·h | concentration at 1 h [4]: 177 nM | concentration at 1 h [5]: 184 nM | concentration at 3 h [4]: 304 nM | concentration at 3 h [5]: 405 nM | concentration at 8 h [4]: 443 nM | concentration at 8 h [5]: 544 nM | concentration at 24 h [4]: 737 nM | concentration at 24 h [5]: 750 nM | concentration at 48 h [4]: 623 nM | concentration at 48 h [5]: 622 nM | concentration at 72 h [5]: 426 nM | concentration at 96 h [4]: 593 nM | concentration at 96 h [5]: 526 nM | concentration at 168 h [4]: 504 nM | concentration at 168 h [5]: 560 nM | concentration at 3 h (male, Solution H (~400 mg/mL), Wistar Han rats, individual animals #1-#4, read-out: Plasma concentration): 179 nM | concentration at 3 h [6]: 245 nM | concentration at 8 h [6]: 285 nM | concentration at 3 h [7]: 463 nM | concentration at 8 h [7]: 510 nM | concentration at 24 h [7]: 761 nM | concentration at 48 h [7]: 716 nM | concentration at 72 h [7]: 526 nM | concentration at 96 h [7]: 506 nM | concentration at 168 h [7]: 481 nM | concentration at 1 h [8]: 249 nM | concentration at 3 h [8]: 445 nM | concentration at 8 h [8]: 507 nM | concentration at 24 h [8]: 605 nM | concentration at 48 h [8]: 558 nM | concentration at 72 h [8]: 452 nM | concentration at 96 h [8]: 461 nM | concentration at 168 h [8]: 467 nM | concentration at 24 h [9]: 438 nM | concentration at 48 h [9]: 439 nM | concentration at 3 h [10]: 209 nM | concentration at 8 h [10]: 218 nM | concentration at 24 h [10]: 361 nM | concentration at 48 h [10]: 376 nM
SMILES: CC(C)(C#Cc1ccc(-c2ccc(Cl)c3c(NS(C)(=O)=O)nn(CC(F)(F)F)c23)c([C@H](Cc2cc(F)cc(F)c2)NC(=O)Cn2nc(C(F)(F)F)c3c2C(F)(F)[C@@H]2C[C@H]32)n1)S(C)(=O)=O [compound of Formula (Ia)]
